Experiments:
[1] = Plasma concentrations of flutamide active metabolite in rats after single oral doses of various esters (0-4 hours), gas-liquid chromatography; format: in vivo, male Sprague Dawley rats; settings: rat; for Relative Rank (0-4 hour area): oral, 0-4 hour area relative to flutamide = 1.00; for Area under the 0-4 hour plasma level curve of flutamide active metabolite (0-4 Hours) / Plasma concentration of flutamide active metabolite, 2 Hours / Plasma concentration of flutamide active metabolite, 4 Hours: single oral dose, normalized to a 5 mg/kg dose of flutamide active metabolite; for Plasma concentration of flutamide active metabolite, 2 Hours / Plasma concentration of flutamide active metabolite, 4 Hours: average of 2 animals
[2] = Plasma concentrations of flutamide active metabolite for up to 16 hours after administration of esters or flutamide; format: in vivo, rats; settings: rat; for 0-16 hr (area under the plasma level curve of flutamide active metabolite) / Plasma concentration of flutamide active metabolite, 0.5 hr / Plasma concentration of flutamide active metabolite, 1 hr / Plasma concentration of flutamide active metabolite, 2 hr / Plasma concentration of flutamide active metabolite, 4 hr / Plasma concentration of flutamide active metabolite, 8 hr / Plasma concentration of flutamide active metabolite, 16 hr: normalized to a 5 mg/kg dose of flutamide active metabolite; for Plasma concentration of flutamide active metabolite, 0.5 hr / Plasma concentration of flutamide active metabolite, 1 hr / Plasma concentration of flutamide active metabolite, 2 hr / Plasma concentration of flutamide active metabolite, 4 hr / Plasma concentration of flutamide active metabolite, 8 hr / Plasma concentration of flutamide active metabolite, 16 hr: average of 3 animals; for Relative Rank (0-16 hr): 0-16 hr area relative to flutamide = 1.00
Protocol: Plasma concentrations of the flutamide active metabolite were determined by gas-liquid chromatography in 300-350 gram male Sprague Dawley rats following single oral 5 mg/kg doses of the compounds listed. […]

Compound | Relative Rank (0-4 hour area) [1] | Area under the 0-4 hour plasma level curve of flutamide active metabolite (0-4 Hours) [1] | Plasma concentration of flutamide active metabolite, 2 Hours [1] | Plasma concentration of flutamide active metabolite, 4 Hours [1] | 0-16 hr (area under the plasma level curve of flutamide active metabolite) [2] | Plasma concentration of flutamide active metabolite, 0.5 hr [2] | Plasma concentration of flutamide active metabolite, 1 hr [2] | Plasma concentration of flutamide active metabolite, 2 hr [2] | Plasma concentration of flutamide active metabolite, 4 hr [2] | Plasma concentration of flutamide active metabolite, 8 hr [2] | Plasma concentration of flutamide active metabolite, 16 hr [2] | Relative Rank (0-16 hr) [2]
C[C@H](N)C(=O)NCC(=O)N(C)CC(=O)OC(C)(C)C(=O)Nc1ccc([N+](=O)[O-])c(C(F)(F)F)c1 [ala--gly--sar, L-alanyl-glycyl-N-methylglycine, [1-methyl-[[4-nitro-3-(trifluoromethyl)phenyl]aminocarbonyl]ethyl]ester] | 2.09 | 5020 ng·h/mL | 1952 ng/mL | 1115 ng/mL | 17200 ng·h/mL | 1079 ng/mL | 2029 ng/mL | 1365 ng/mL | 1803 ng/mL | 1005 ng/mL | 423 ng/mL | 2.08
CC(C)C(=O)Nc1ccc([N+](=O)[O-])c(C(F)(F)F)c1 [H (flutamide), 2-methyl-N-[4-nitro-3-(trifluoromethyl)phenyl]propanamide, reference compound] | 1.00 | 2400 ng·h/mL | 715 ng/mL | 974 ng/mL | 8270 ng·h/mL | 210 ng/mL | 322 ng/mL | 614 ng/mL | 722 ng/mL | 649 ng/mL | 236 ng/mL | 1.00
L-Proline-[1-methyl-[[4-nitro-3-trifluoromethyl)phenyl]aminocarbonyl]ethyl ]ester, hydrochloride | 1.46 | 3510 ng·h/mL | 1059 ng/mL | 1393 ng/mL |  |  |  |  |  |  |  | 
CN(CC(=O)OC(C)(C)C(=O)Nc1ccc([N+](=O)[O-])c(C(F)(F)F)c1)C(=O)CNC(=O)[C@@H](N)CCCCN [lys--gly--sar, L-lysyl-glycyl-N-methylglycine, [1-methyl-[[4-nitro-3-(trifluoromethyl)phenyl]aminocarbonyl]ethyl]ester] | 1.44 | 3450 ng·h/mL | 1103 ng/mL | 1248 ng/mL |  |  |  |  |  |  |  | 
CC(C)(OC(=O)[C@@H]1CCCN1C(=O)CNC(=O)[C@@H](N)CCCCN)C(=O)Nc1ccc([N+](=O)[O-])c(C(F)(F)F)c1.Cl.Cl [lys--gly--pro, L-lysyl-glycyl-L-proline-[1-methyl-[[4-nitro-3-(trifluoromethyl)phenyl]aminocarbonyl]ethyl]ester, dihydrochloride] | 2.66 | 6400 ng·h/mL | 2277 ng/mL | 1847 ng/mL | 15600 ng·h/mL | 1392 ng/mL | 1907 ng/mL | 1751 ng/mL | 1170 ng/mL | 1054 ng/mL | 256 ng/mL | 1.89
CNCC(=O)OC(C)(C)C(=O)Nc1ccc([N+](=O)[O-])c(C(F)(F)F)c1 [sar] | 1.52 | 3650 ng·h/mL | 1345 ng/mL | 958 ng/mL |  |  |  |  |  |  |  | 

Reference: patent publication US4921941A, “Orally active antiandrogens” (Schering Corporation, priority 1987, dated 1990)
